# US7364719B2, “Vasoregulating compounds and methods of their use” (The United States of America as represented by the …, priority 2002, dated 2008)
# Bridges are numbered along the chain shown (N, C = ends). Where no end group is shown, it is not given here.
# Key:
# hypertensive SHR rats = assay: Arterial blood pressure in hypertensive SHR rats after IP MMP-2 inhibitor; assay type: in vivo, rat; conditions: 5 mg IP
# [1] = tested on: Male 10-week-old Lewis/ssncr rats; assay: Blood pressure measurements in rats after intravenous peptide injection; assay type: in vivo, rat
# Method: Blood pressure measurements. Male 10-week-old Lewis/ssncr rats (SAIC, Frederic, Md.) were anesthetized with 3% halothane, intubated, and maintained with 1% halothane in 70% nitrous oxide and 30% oxygen (VMS Anesthesia Machine, Matrx, Medical Inc., Orchard Park, N.Y.) at 82 strokes/minute. Rectal temperature was monitored through the experiment. A PE50 catheter was placed on the right femoral artery and arterial blood pressure was recorded through a P23XL transducer (Grass Instruments, Quincy, Mass.). Peptides were injected into the right femoral vein through another catheter. To confirm that changes in blood pressure were not an artifact of the anesthesia, the experiments were repeated in conscious animals. After catheters were placed under anesthesia, the animals were allowed to recover for 24-48 hours before taking blood pressure measurements. All procedures were performed under a protocol approved by the National Institutes of Health.
# [2] = molecular target: T1, AM receptor in Rat2 cells (Rattus norvegicus, UniProt Q63118); assay: Measurement of cAMP response in Rat2 cells (radioimmunoassay); assay type: cell-based; conditions: for intracellular elevation of cAMP: peptides applied 5 minutes, versus PBS control
# T1 construct: Rat2 is a fibroblast cell line that contains a well characterized AM receptor; host or cells: Rat2 rat fibroblast cell line
# T1 sequence (Q63118 23-464 limits assumed): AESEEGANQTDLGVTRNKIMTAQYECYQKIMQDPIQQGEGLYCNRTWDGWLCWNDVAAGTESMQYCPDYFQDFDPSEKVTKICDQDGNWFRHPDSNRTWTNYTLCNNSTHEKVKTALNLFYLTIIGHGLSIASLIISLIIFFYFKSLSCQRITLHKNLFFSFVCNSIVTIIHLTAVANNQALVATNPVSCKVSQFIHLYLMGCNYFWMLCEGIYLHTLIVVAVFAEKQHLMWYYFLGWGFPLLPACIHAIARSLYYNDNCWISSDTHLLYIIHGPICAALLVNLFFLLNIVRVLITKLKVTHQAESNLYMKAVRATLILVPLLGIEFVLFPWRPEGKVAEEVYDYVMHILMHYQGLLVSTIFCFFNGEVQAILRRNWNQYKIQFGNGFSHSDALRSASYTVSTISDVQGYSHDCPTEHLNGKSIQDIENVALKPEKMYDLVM
# T1 sequence (Q9JHJ1 46-182 partner): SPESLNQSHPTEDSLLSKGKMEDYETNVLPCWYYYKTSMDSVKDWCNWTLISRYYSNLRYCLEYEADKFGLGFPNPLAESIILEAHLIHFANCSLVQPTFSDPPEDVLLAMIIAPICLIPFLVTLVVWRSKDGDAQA
# Method: Measurement of cAMP response. The rat fibroblast cell line Rat2 was obtained from the American Tissue Culture Collection (Manassas, Va.) and kept in RPMI-1640 medium supplemented with 10% fetal calf serum (Invitrogen). Accumulation of intracellular cAMP was measured as described (Pío et al., J. Biol. Chem. 276:12292-12300, 2001). Cells were seeded in 24-well plates at 2×10^4 cells/well and incubated at 37° C. in 5% CO2 until they reached 80% confluency. Before the assay, cells were incubated for 15 minutes in TIS medium (RPMI-1640 plus 10 μg/ml transferrin, 10 μg/ml insulin, and 50 nM sodium selenite) containing 1% bovine serum albumin, 1 mg/ml bacitracin, and 100 μM isobutylmethylxanthine. Peptides were applied in the same medium for 5 minutes at the indicated concentrations in a volume of 250 μl. The reaction was terminated by adding an equal volume of ice-cold ethanol. cAMP contents were measured using the Biotrac cAMP radioimmunoassay (Amersham).
# To determine if AM peptide fragments elicit their hypotensive and hypertensive effects via the AM receptor, their cAMP response in fibroblasts was examined.
# blood pressure = conditions: Kitamura et al. 2001; cited from earlier work
# anesthetized rats = conditions: Watanabe et al. 1996; cited from earlier work
# Human recombinant MMP-2 = molecular target: T2, Human recombinant MMP-2 (Homo sapiens, UniProt P08253); assay: Digestion reactions with MMP-2 (gel, HPLC); assay type: biochemical; conditions: low salt collagenase buffer, absence of factor H
# T2 construct: made in house
# T2 sequence (P08253 110-660): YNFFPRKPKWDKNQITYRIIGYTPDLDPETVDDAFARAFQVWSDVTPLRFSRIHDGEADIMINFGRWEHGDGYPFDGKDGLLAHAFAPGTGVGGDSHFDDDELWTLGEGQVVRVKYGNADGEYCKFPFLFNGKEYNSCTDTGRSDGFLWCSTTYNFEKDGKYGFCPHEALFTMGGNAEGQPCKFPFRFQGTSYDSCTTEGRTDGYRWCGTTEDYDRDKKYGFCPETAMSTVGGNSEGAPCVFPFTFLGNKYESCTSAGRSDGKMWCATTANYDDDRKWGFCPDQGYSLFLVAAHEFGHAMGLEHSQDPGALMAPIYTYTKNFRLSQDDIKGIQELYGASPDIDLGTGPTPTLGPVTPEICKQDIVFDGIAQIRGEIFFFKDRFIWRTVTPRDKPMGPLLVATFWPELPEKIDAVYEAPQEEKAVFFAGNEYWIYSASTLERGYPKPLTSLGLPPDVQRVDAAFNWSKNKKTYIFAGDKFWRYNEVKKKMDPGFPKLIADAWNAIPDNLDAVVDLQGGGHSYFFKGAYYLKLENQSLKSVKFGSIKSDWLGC
# Method: (§1) Digestion reactions. Synthetic AM (240 μg/reaction) was exposed to 11.5 μg MMP-2 or MMP-9 in low salt collagenase buffer (50 mM Tris, pH 7.5, 50 mM NaCl, 0.02% Brig) for different periods of time in the presence or absence of 6 mg factor H. These amounts correspond to an approximate molar ratio of 1:250:250 (enzyme:AM:factor H). The reaction was stopped with EDTA. Digestion reactions were run in 16% Tricine gels (Invitrogen, Carlsbad, Calif.) under reducing conditions and stained with Gel Code Blue Stain Reagent (Pierce, Rockford, Ill.).
# High performance liquid chromatography (HPLC). Digestion reactions were also loaded into an analytical reverse phase R2H 5×100 mm HPLC column (Poros, Applied Biosystems, Foster City, Calif.) in a 10-60% acetonitrile gradient over 10 minutes and the protein peaks eluted from the column were detected with a wavelength of 230 nm.
# Human recombinant MMP-9 = molecular target: T3, Human recombinant MMP-9 (Homo sapiens, UniProt P14780); assay: Digestion reactions with MMP-9 (gel); assay type: biochemical; conditions: low salt collagenase buffer
# T3 construct: made in house
# T3 sequence (P14780 94-707): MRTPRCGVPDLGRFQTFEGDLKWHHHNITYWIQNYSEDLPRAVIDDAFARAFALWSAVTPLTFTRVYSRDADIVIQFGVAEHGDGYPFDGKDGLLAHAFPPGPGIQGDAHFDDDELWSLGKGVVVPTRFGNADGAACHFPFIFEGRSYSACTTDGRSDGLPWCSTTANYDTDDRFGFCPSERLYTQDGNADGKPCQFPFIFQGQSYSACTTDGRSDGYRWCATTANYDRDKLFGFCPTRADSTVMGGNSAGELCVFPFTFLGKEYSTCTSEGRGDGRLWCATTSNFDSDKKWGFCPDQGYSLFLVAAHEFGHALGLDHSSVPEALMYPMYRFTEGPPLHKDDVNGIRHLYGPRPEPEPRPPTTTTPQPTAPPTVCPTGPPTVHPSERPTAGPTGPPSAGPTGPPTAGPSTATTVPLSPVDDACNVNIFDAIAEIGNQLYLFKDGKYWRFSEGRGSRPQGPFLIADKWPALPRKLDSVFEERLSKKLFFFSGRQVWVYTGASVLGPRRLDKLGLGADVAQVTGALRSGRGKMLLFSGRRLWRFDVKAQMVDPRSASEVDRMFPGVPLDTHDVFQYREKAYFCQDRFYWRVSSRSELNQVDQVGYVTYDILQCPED
# Method: as §1
# [3] = anesthetized rats, injection into femoral vein
compound,measurement,setting,value
"CNC(=O)[C@H](Cc1ccccc1)NC(=O)[C@H](CC(C)C)[C@H](CSc1cccs1)C(=O)NO [BB-94, Batimastat]",drop in blood pressure,hypertensive SHR rats,about 80 mm of Hg
same,time after injection at which blood pressure dropped,hypertensive SHR rats,20 min
same,time blood pressure remained at the reduced level,hypertensive SHR rats,at least 2.5 hours
"AM(8-52): AM fragment generated by MMP-2 digestion; maintains intramolecular ring structure and α-amide; synthesized (FQGLRSFGCRFGTCTVQKLAHQIYQFTDKDKDNVAPRSKISPQGY-NH2; disulfide 9-14 (inferred); UniProt P35318 102-146, looked up, fragment)",effect on blood pressure,[1]; [3],induced hypotension
same,intracellular elevation of cAMP,[2],equal to the one induced by the intact AM molecule
"AM(11-22): peptide consisting of amino acids 11-22 of adrenomedullin (LRSFGCRFGTCT; PEPTIDE (1)..(12) Active peptide AM(11-22), corresponding to positions 11-22 of adrenomedullin (SEQ ID NO 3) and positions 105-116 of preproadrenomedullin (SEQ ID NO 2).; listed as Homo sapiens)",vasopressor effect over basal levels,"[1]; anesthetized rats, injection into femoral vein, n=5",71±24 mm Hg
same,duration of activity,[1]; vasoconstrictor activity in rats,on the order of hours
same,effect on cAMP response elicited by intact AM (1-52),[2]; different (increasing) concentrations of peptide added with AM,did not affect the response
"AM(11-26): AM fragment purified from bovine adrenal medulla (Kitamura et al.) (LRSFGCRFGTCTVQKL; ends and bridges not checked; cysteine pairing not given here; UniProt P35318 105-120, looked up, fragment)",duration of elevation in blood pressure,blood pressure,about 70 seconds
same,vasopressor activity,blood pressure,induced vasopressor activity
"AM(11-28): AM fragment generated by MMP-2 digestion; has the loop but not the carboxy end; synthesized (LRSFGCRFGTCTVQKLAH; disulfide 6-11 (inferred); UniProt P35318 105-122, looked up, fragment)",effect on blood pressure,[1]; [3],do not have any discernible effect
"AM(11-52): AM fragment generated by MMP-2 digestion; maintains intramolecular ring structure and α-amide; synthesized (LRSFGCRFGTCTVQKLAHQIYQFTDKDKDNVAPRSKISPQGY-NH2; disulfide 6-11 (inferred); UniProt P35318 105-146, looked up, fragment)",effect on blood pressure,[1]; [3],induced hypotension
same,intracellular elevation of cAMP,[2],equal to the one induced by the intact AM molecule
"AM(23-52): AM fragment generated by MMP-2 digestion; retains only the terminal amide; synthesized (VQKLAHQIYQFTDKDKDNVAPRSKISPQGY-NH2; UniProt P35318 117-146, looked up, fragment)",effect on blood pressure,[1]; [3],do not have any discernible effect
"AM(29-52): AM fragment generated by MMP-2 digestion; retains only the terminal amide; synthesized (QIYQFTDKDKDNVAPRSKISPQGY-NH2; UniProt P35318 123-146, looked up, fragment)",effect on blood pressure,[1]; [3],do not have any discernible effect
"AM-(1-21)-NH2: synthetic N-terminal AM fragment (Watanabe et al.) (YRQSMNNFQGLRSFGCRFGTC-NH2; ends and bridges not checked; UniProt P35318 95-115, looked up, fragment)",vasoactivity (vasodepressor or vasopressor),anesthetized rats,vasopressor activity
"AM-(1-25)-NH2: synthetic N-terminal AM fragment (Watanabe et al.) (YRQSMNNFQGLRSFGCRFGTCTVQK-NH2; ends and bridges not checked; UniProt P35318 95-119, looked up, fragment)",vasoactivity (vasodepressor or vasopressor),anesthetized rats,vasodepressor activity
"AM-(1-25)-OH: synthetic N-terminal AM fragment (Watanabe et al.) (YRQSMNNFQGLRSFGCRFGTCTVQK-OH; ends and bridges not checked; UniProt P35318 95-119, looked up, fragment)",vasoactivity (vasodepressor or vasopressor),anesthetized rats,vasopressor activity
"AM-(1-31)-NH2: synthetic N-terminal AM fragment (Watanabe et al.) (YRQSMNNFQGLRSFGCRFGTCTVQKLAHQIY-NH2; ends and bridges not checked; UniProt P35318 95-125, looked up, fragment)",vasoactivity (vasodepressor or vasopressor),anesthetized rats,vasopressor activity
"acetyl-AM-(16-21)-NH2: synthetic N-terminal AM fragment (Watanabe et al.) (Ac-CRFGTC-NH2; ends and bridges not checked; UniProt P35318 110-115, looked up, fragment)",vasoactivity (vasodepressor or vasopressor),anesthetized rats,vasopressor activity
"acetyl-AM-(16-36)-NH2: synthetic N-terminal AM fragment (Watanabe et al.) (Ac-CRFGTCTVQKLAHQIYQFTDK-NH2; ends and bridges not checked; UniProt P35318 110-130, looked up, fragment)",vasoactivity (vasodepressor or vasopressor),anesthetized rats,vasopressor activity
adrenomedullin [AM],reduction of blood pressure (hypotension),"[1]; anesthetized rats, injection into femoral vein, n=5, untreated systolic 125±10 mm Hg",55±5 mm Hg
same,intracellular elevation of cAMP,[2],significant elevation of cAMP
same,degradation by MMP-2,Human recombinant MMP-2,rapidly cleaves
same,degradation by MMP-9,Human recombinant MMP-9,resistance
